According to publication PMC6687188, “Novel lactate dehydrogenase inhibitors with in vivo efficacy against Cryptosporidium parvum” (PLoS Pathogens, 2019):
Non-standard residues stand in square brackets, D forms with d. Residues, ends and D or L forms follow the SMILES beside them. ξ: configuration not given here. *: point of attachment. ξNMe2Val = CC(C)C(C(=O)*)N(C)C; NMeV = CN[CH](C(=O)O)C(C)C; NHBn = c1ccc(CN*)cc1

Target: recombinant CpLDH protein (Cryptosporidium parvum, UniProt Q9GT92, F198L/K295E/R251K)

First: CCP(CC)CC.[Au+].[Cl-] [NSC313981]
Second: CN(C)CCCCN1CCc2c(n(C)c3ccccc23)C1=O.Cl [NSC658388]
The “MEAN CpLDH INHIBITION (%)” value of the first is higher: -27.27% for the first, -30.45% for the second.

Compared with `Cc1ccc(Cl)c2c(N=Nc3ccccc3[N+](=O)[O-])c(O)[nH]c12` [NSC118735], `O=C(N=Nc1c(O)[nH]c2ccccc12)c1ccccc1O` [NSC635404] is lower in “MEAN CpLDH INHIBITION (%)” value: -15.17% for the first, -38.57% for the second.

Compared with `C[C@]12Cc3cnc(-c4ccccc4)nc3C[C@@H]1CC[C@@H]1[C@@H]2CC[C@@]2(C)[C@H]1CC[C@]2(C)O` [NSC39863], `OCC1OC(n2cnc3c(SCc4ccccc4)ncnc32)C(O)C1O` (centres unmarked) [NSC26273] is higher in “MEAN CpLDH INHIBITION (%)” value: -20.27% for the first, -4.046% for the second.

Compared with `CCN1/C(=C/C(C)=C/c2sc3ccccc3[n+]2CC)Sc2ccccc21.[I-]` [NSC96932], `CC(=O)c1sc2[n+](c1C)C(=O)/C(=C\c1ccccc1Cl)S2` [NSC658285] is lower in “MEAN CpLDH INHIBITION (%)” value: -8.62% for the first, -36.39% for the second.

Going from `CC1=CC(O)C(O)C2(C)C1CC1OC(=O)C(O)C3C(C)C(O)C4(O)OCC13C42` (centres unmarked) [NSC14974] to `C=C1C(=O)OC2CC1C(OC(C)=O)C/C(C)=C/CC/C(C)=C\CCC2(C)O` (centres unmarked) [NSC36437], the “MEAN CpLDH INHIBITION (%)” value falls from 0.167% to -19.06%.

Compared with `CSc1ccc(NC(=O)CCl)cc1` [NSC166464], `Cc1ccc(NC(=O)C(=O)CC(=O)c2ccccc2)cc1C` [NSC636126] is lower in “MEAN CpLDH INHIBITION (%)” value: -7.16% for the first, -16.52% for the second.

Compared with `CCCCCC/C=C\CCCCCCCCCc1cccc(OC)c1O` [NSC617540], `CCS(=O)(=O)O.CN(C)C(=O)c1cccc(COc2ccc(N3C(N)=NC(N)=NC3(C)C)cc2Cl)c1` [NSC139105] is lower in “MEAN CpLDH INHIBITION (%)” value: -6.79% for the first, -28.54% for the second.

Going from `CN(C)CC1CCC/C(=C\c2ccc(OC(=O)/C=C/c3ccccc3)cc2)C1=O.Cl` (centres unmarked) [NSC697443] to `COc1ccc(/C=C2\CCCc3ccccc3C2=O)cc1` [NSC687667], the “MEAN CpLDH INHIBITION (%)” value rises from -57.12% to -11.60%.

Going from `CN(C)c1ccc(/C=c2/sc3nc(=O)c(-c4ccccc4NC(=O)C(F)(F)F)nn3c2=O)cc1` [NSC623095] to `Cc1ccccc1NC(=O)C(=O)C(c1cnc2ccc([N+](=O)[O-])cc2n1)[N+](=O)[O-]` (centres unmarked) [NSC644735], the “MEAN CpLDH INHIBITION (%)” value rises from -151.18% to -56.47%.

Compared with `CC(C)C(NC(=O)C(C(C)C)N(C)C)C(=O)N(C)C(C(=O)N1CCCC1C(=O)N1CCCC1C(=O)NCc1ccccc1)C(C)C.Cl` (centres unmarked) [NSC669356] (ξNMe2Val-V[NMeV]PP-NHBn; configuration not given here), `CC(C)(C)OC(=O)NC(Cc1ccccc1)C(=O)OCN1C(=O)C2C3C=CC(C2C1=O)C1C2C(=O)N(COC(=O)C(Cc4ccccc4)NC(=O)OC(C)(C)C)C(=O)C2C31` (centres unmarked) [NSC607316] is higher in “MEAN CpLDH INHIBITION (%)” value: -120.43% for the first, -7.22% for the second.

Going from `Cl.O=C1C=CC(=O)c2c(O)c(N3CCN(CCOCCO)CC3)c(Br)c(O)c21` [NSC659999] to `COc1cc([C@@H]2c3cc4c(c(O)c3C[C@H]3COC(=O)[C@@H]32)OCO4)cc(OC)c1O` [NSC24817], the “MEAN CpLDH INHIBITION (%)” value rises from -30.12% to -20.22%.

First: CCOC(=O)/C=C/c1c(C)[nH]c(=O)[nH]c1=O [NSC159935]
Second: Cc1ccc(NC(=O)/C=C/c2ccccc2)c(C)c1 [NSC191389]
The “MEAN CpLDH INHIBITION (%)” value of the first is higher: -51.31% for the first, -64.07% for the second.

Compared with `N#CCCN(CCC#N)c1ccc(C=Nc2ccc(F)cc2)cc1` [NSC620277], `[Cl][Hg][c]1ccc2ccccc2c1` [NSC174163] is higher in “MEAN CpLDH INHIBITION (%)” value: -46.45% for the first, -16.59% for the second.

Going from `CC1=C(O)c2ccccc2C(=O)C1=O` [NSC11897] to `Nc1ccccc1N` [NSC5354], the “MEAN CpLDH INHIBITION (%)” value rises from -2.25% to 0%.

For `C[C@@H]1C[C@H]2CC[C@H](O2)[C@H](C)C(=O)O[C@@H](C)C[C@@H]2CC[C@@H](O2)[C@@H](C)C(=O)O[C@H](C)C[C@H]2CC[C@H](O2)[C@H](C)C(=O)O[C@@H](C)C[C@@H]2CC[C@@H](O2)[C@@H](C)C(=O)O1` [NSC52141], the “MEAN CpLDH INHIBITION (%)” value was -100.84%.
